# Results as given in patent US20050229276A1, “Method of producing cyclamen root tuber and method of proliferating cyclamen using the same” (Tokyo University of Agricultural, priority 2002, published 2005).
# System: cyclamen (cultivar: Dressy Scarlet) seedling
# Assay: Growth of root tubers at cut root ends of seedlings in solid media
# Type: in vivo
# Method: A cyclamen (cultivar: Dressy Scarlet) seed was immersed in an ethyl alcohol aqueous solution having an ethyl alcohol concentration of 70 wt % for 10 seconds and in a sodium hypochlorite solution having an effective chlorine concentration of 1 wt % for 10 minutes to sterilize the surface of the seed. Thereafter, this seed was washed in sterilized water 3 times to remove the sodium hypochlorite from the surface of the seed. This was sown in an MS solid medium containing 30 g/l of sucrose and 6 g/l of agar under a germ-free condition and cultured at a temperature of 20° C. under weak light for 30 days to be germinated and rooted.
# The end portions of the roots of the above germinated and rooted cyclamen seedling were cut off with a scalpel, and the seedling was planted in the following solid media. As the media, a large number of experimental plots were prepared by adding NAA and BA as phytohormones to the ⅓ MS medium in concentrations shown in Tables 1 to 3 and further adding 30 to 90 g/l of sucrose. 6 g/l of agar was added to all of the media which were then sterilized in an autoclave to prepare media having a pH of 7.0. 10 ml of each of the solid media was placed in a 50 ml culture test tube. The stationary culture of the seedling planted in each of the media was carried out at 20° C. under weak light for a certain number of days to grow root tubers at the end portions of its roots.
# [1] = sucrose 30 g/l, BA 0.1 mg/l, NAA 0.00 mg/l, 30-th day
# [2] = sucrose 30 g/l, BA 0.1 mg/l, NAA 0.01 mg/l, 30-th day
# [3] = sucrose 30 g/l, BA 0.1 mg/l, NAA 0.05 mg/l, 30-th day
# [4] = sucrose 30 g/l, BA 1.0 mg/l, NAA 0.00 mg/l, 30-th day
# [5] = sucrose 30 g/l, BA 1.0 mg/l, NAA 0.01 mg/l, 30-th day
# [6] = sucrose 30 g/l, BA 1.0 mg/l, NAA 0.05 mg/l, 30-th day
# [7] = sucrose 30 g/l, BA 10.0 mg/l, NAA 0.00 mg/l, 30-th day
# [8] = sucrose 30 g/l, BA 10.0 mg/l, NAA 0.01 mg/l, 30-th day
# [9] = sucrose 30 g/l, BA 10.0 mg/l, NAA 0.05 mg/l, 30-th day
# [10] = sucrose 50 g/l, BA 0.1 mg/l, NAA 0.00 mg/l, 30-th day
# [11] = sucrose 50 g/l, BA 0.1 mg/l, NAA 0.01 mg/l, 30-th day
# [12] = sucrose 50 g/l, BA 0.1 mg/l, NAA 0.05 mg/l, 30-th day
# [13] = sucrose 50 g/l, BA 1.0 mg/l, NAA 0.00 mg/l, 30-th day
# [14] = sucrose 50 g/l, BA 1.0 mg/l, NAA 0.01 mg/l, 30-th day
# [15] = sucrose 50 g/l, BA 1.0 mg/l, NAA 0.05 mg/l, 30-th day
# [16] = sucrose 50 g/l, BA 10.0 mg/l, NAA 0.00 mg/l, 30-th day
# [17] = sucrose 50 g/l, BA 10.0 mg/l, NAA 0.01 mg/l, 30-th day
structure (smiles),measurement,setting,value
"c1ccc(CNc2ncnc3[nH]cnc23)cc1 [BA, benzylaminopurine]",Number of grown root tubers,"BA 0.0 mg/l, sucrose 30 g/l, NAA 0.05 mg/l, 23 roots cut off, 30-th day",23
same,Enlarging ratio (diameter of root tuber vs root at start = 1),"BA 0.0 mg/l, sucrose 30 g/l, NAA 0.05 mg/l, 30-th day",8.4
same,Number of grown root tubers,"BA 0.1 mg/l, sucrose 30 g/l, NAA 0.05 mg/l, 17 roots cut off, 30-th day",17
same,Enlarging ratio (diameter of root tuber vs root at start = 1),"BA 0.1 mg/l, sucrose 30 g/l, NAA 0.05 mg/l, 30-th day",2.3
same,Number of grown root tubers,"BA 0.1 mg/l, sucrose 50 g/l, NAA 0.05 mg/l, 17 roots cut off, 30-th day",16
same,Enlarging ratio (diameter of root tuber vs root at start = 1),"BA 0.1 mg/l, sucrose 50 g/l, NAA 0.05 mg/l, 30-th day",3.2
same,Number of grown root tubers,"BA 0.1 mg/l, sucrose 70 g/l, NAA 0.05 mg/l, 21 roots cut off, 30-th day",21
same,Enlarging ratio (diameter of root tuber vs root at start = 1),"BA 0.1 mg/l, sucrose 70 g/l, NAA 0.05 mg/l, 30-th day",3.8
same,Number of grown root tubers,"BA 0.1 mg/l, sucrose 90 g/l, NAA 0.05 mg/l, 18 roots cut off, 30-th day",18
same,Enlarging ratio (diameter of root tuber vs root at start = 1),"BA 0.1 mg/l, sucrose 90 g/l, NAA 0.05 mg/l, 30-th day",5.0
same,Number of grown root tubers,"BA 0.5 mg/l, sucrose 30 g/l, NAA 0.05 mg/l, 20 roots cut off, 30-th day",20
same,Enlarging ratio (diameter of root tuber vs root at start = 1),"BA 0.5 mg/l, sucrose 30 g/l, NAA 0.05 mg/l, 30-th day",6.6
same,Number of grown root tubers,"BA 0.5 mg/l, sucrose 50 g/l, NAA 0.05 mg/l, 21 roots cut off, 30-th day",20
same,Enlarging ratio (diameter of root tuber vs root at start = 1),"BA 0.5 mg/l, sucrose 50 g/l, NAA 0.05 mg/l, 30-th day",9.5
same,Number of grown root tubers,"BA 0.5 mg/l, sucrose 70 g/l, NAA 0.05 mg/l, 25 roots cut off, 30-th day",25
same,Enlarging ratio (diameter of root tuber vs root at start = 1),"BA 0.5 mg/l, sucrose 70 g/l, NAA 0.05 mg/l, 30-th day",7.2
same,Number of grown root tubers,"BA 0.5 mg/l, sucrose 90 g/l, NAA 0.05 mg/l, 16 roots cut off, 30-th day",16
same,Enlarging ratio (diameter of root tuber vs root at start = 1),"BA 0.5 mg/l, sucrose 90 g/l, NAA 0.05 mg/l, 30-th day",6.0
same,Number of grown root tubers,"BA 1.0 mg/l, sucrose 50 g/l, NAA 0.05 mg/l, 24 roots cut off, 30-th day",23
same,Enlarging ratio (diameter of root tuber vs root at start = 1),"BA 1.0 mg/l, sucrose 50 g/l, NAA 0.05 mg/l, 30-th day",6.3
same,Number of grown root tubers,"BA 1.0 mg/l, sucrose 70 g/l, NAA 0.05 mg/l, 17 roots cut off, 30-th day",17
same,Enlarging ratio (diameter of root tuber vs root at start = 1),"BA 1.0 mg/l, sucrose 70 g/l, NAA 0.05 mg/l, 30-th day",5.4
same,Number of grown root tubers,"BA 1.0 mg/l, sucrose 90 g/l, NAA 0.05 mg/l, 4 roots cut off, 30-th day",3
same,Enlarging ratio (diameter of root tuber vs root at start = 1),"BA 1.0 mg/l, sucrose 90 g/l, NAA 0.05 mg/l, 30-th day",3.8
same,Number of large root tubers (diameter of 1 mm or more),[1],4
same,Total number of root tubers,[1],18
same,Number of large root tubers (diameter of 1 mm or more),[2],5
same,Total number of root tubers,[2],15
same,Number of large root tubers (diameter of 1 mm or more),[3],5
same,Total number of root tubers,[3],15
same,Number of large root tubers (diameter of 1 mm or more),[4],2
same,Total number of root tubers,[4],6
same,Number of large root tubers (diameter of 1 mm or more),[5],3
same,Total number of root tubers,[5],5
same,Number of large root tubers (diameter of 1 mm or more),[6],6
same,Total number of root tubers,[6],7
same,Number of large root tubers (diameter of 1 mm or more),[7],6
same,Total number of root tubers,[7],11
same,Number of large root tubers (diameter of 1 mm or more),[8],5
same,Total number of root tubers,[8],5
same,Number of large root tubers (diameter of 1 mm or more),[9],4
same,Total number of root tubers,[9],8
same,Number of large root tubers (diameter of 1 mm or more),[10],1
same,Total number of root tubers,[10],2
same,Number of large root tubers (diameter of 1 mm or more),[11],0
same,Total number of root tubers,[11],1
same,Average number of root tubers (per a seedling),[12],2.8
same,Number of large root tubers (diameter of 1 mm or more),[12],7
same,Total number of root tubers,[12],14
same,Average number of root tubers (per a seedling),"sucrose 50 g/l, BA 0.1 mg/l, NAA 0.05 mg/l, 50-th day",2.8
same,Number of large root tubers (diameter of 1 mm or more),[13],11
same,Total number of root tubers,[13],16
same,Number of large root tubers (diameter of 1 mm or more),[14],11
same,Total number of root tubers,[14],16
same,Average number of root tubers (per a seedling),[15],4.8
same,Number of large root tubers (diameter of 1 mm or more),[15],4
same,Total number of root tubers,[15],9
same,Average number of root tubers (per a seedling),"sucrose 50 g/l, BA 1.0 mg/l, NAA 0.05 mg/l, 50-th day",4.8
same,Average number of root tubers (per a seedling),"sucrose 50 g/l, BA 2.0 mg/l, NAA 0.05 mg/l, 30-th day",0.6
same,Average number of root tubers (per a seedling),"sucrose 50 g/l, BA 2.0 mg/l, NAA 0.05 mg/l, 50-th day",0.6
same,Average number of root tubers (per a seedling),"sucrose 50 g/l, BA 5.0 mg/l, NAA 0.05 mg/l, 30-th day",1.8
same,Average number of root tubers (per a seedling),"sucrose 50 g/l, BA 5.0 mg/l, NAA 0.05 mg/l, 50-th day",1.8
same,Number of large root tubers (diameter of 1 mm or more),[16],6
same,Total number of root tubers,[16],7
same,Number of large root tubers (diameter of 1 mm or more),[17],3
same,Total number of root tubers,[17],10
